Measured values: paper PMC10650415, “Synthesis of Tetracyclic Spirooxindolepyrrolidine-Engrafted Hydantoin Scaffolds: Crystallographic Analysis, Molecular Docking Studies and Evaluation of Their Antimicrobial, Anti-Inflammatory and Analgesic Activities” (Molecules, 2023)
Converted amounts (≈) assume the structure as drawn.

Experiments:
P. aeruginosa ATCC 27950 = assay: MBC by the agar method; conditions: Pseudomonas aeruginosa, ATCC27950
Experimental: (§2) To further determine the killing efficiency of the synthesized spiropyrrolidines against selected strains, the minimum bactericidal concentration (MBC) and the minimum fungicidal concentration (MFC) were assessed by the agar method [54].

E. coli ATCC 25922 = assay: MBC by the agar method
Experimental: as §2

[1] = molecular target: T1, Lipoxygenase-5 (LOX-5) enzyme (Homo sapiens, UniProt P09917); assay: In vitro lipoxygenase (LOX-5) inhibitory assay; format: biochemical; conditions: mean ± SEM, n = 5; read-out: IC50 (LOX-5 inhibition) (converted)
T1 construct: purchased sigma 437996-500U
T1 sequence (P09917 1-674): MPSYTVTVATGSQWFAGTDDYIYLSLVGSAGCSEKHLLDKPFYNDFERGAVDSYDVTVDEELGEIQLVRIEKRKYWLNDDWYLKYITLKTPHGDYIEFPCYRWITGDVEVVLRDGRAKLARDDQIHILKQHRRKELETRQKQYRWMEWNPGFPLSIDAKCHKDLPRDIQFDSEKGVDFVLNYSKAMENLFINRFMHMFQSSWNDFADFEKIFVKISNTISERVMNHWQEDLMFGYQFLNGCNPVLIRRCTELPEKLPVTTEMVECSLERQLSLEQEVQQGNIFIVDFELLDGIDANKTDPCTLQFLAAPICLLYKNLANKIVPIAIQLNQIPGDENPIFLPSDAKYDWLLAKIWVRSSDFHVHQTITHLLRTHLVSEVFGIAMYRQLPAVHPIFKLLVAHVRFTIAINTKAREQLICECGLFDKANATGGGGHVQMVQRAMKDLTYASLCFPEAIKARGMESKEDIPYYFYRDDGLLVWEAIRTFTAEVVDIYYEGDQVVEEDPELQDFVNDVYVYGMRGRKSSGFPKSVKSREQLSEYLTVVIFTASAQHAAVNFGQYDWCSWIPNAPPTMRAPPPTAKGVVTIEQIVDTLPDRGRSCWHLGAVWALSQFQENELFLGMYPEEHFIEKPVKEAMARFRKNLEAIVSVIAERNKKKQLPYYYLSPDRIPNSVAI
Experimental: Lipoxygenases are a family of monomeric proteins that catalyze oxidation of polyunsaturated fatty acids (PUFA) (linoleic, linolenic and arachidonic acid) to produce hydroperoxides. Fractions’ anti-LOX activity was also measured as inhibition of linoleic acid’s peroxidation to hydroperoxylinoleic acid.
To evaluate the prospects of the newly synthesized spirooxindoles as promising drug candidates, we first studied their inhibitory potency against the Lipoxygenase-5 (LOX-5) enzyme.

M. luteus NCIMB 8166 = assay: MBC by the agar method; conditions: for MBC: Micrococcus luteus, NCIMB8166; for MBC/MIC ratio: M. luteus, ≤ 4 bactericidal, >4 bacteriostatic
Experimental: as §2

C. albicans ATCC 90028 = assay: MFC by the agar method; conditions: for MFC/MIC ratio: C. Albicans, ≤ 4 fungicidal, >4 fungistatic; for MFC: Candida albicans, ATCC90028
Experimental: as §2

C. kreusei ATCC 6258 = assay: MFC by the agar method; conditions: for MFC/MIC ratio: C. Krusei, ≤ 4 fungicidal, >4 fungistatic; for MFC: Pichia kudriavzevii, ATCC6258
Experimental: as §2

[2] = system: Staphylocoocus aureus ATCC 25923; assay: MIC, in vitro micro diffusion method; format: cell-based; conditions: Staphylococcus aureus, ATCC25923; S. aureus ATCC 25923
Description: (§1) In this part, the spiropyrrolidines 4a–m were selected to be screening for their antimicrobial activities, using in vitro micro diffusion method, against multiple bacterial strains (Staphylocoocus aureus ATCC 25923, Escherichia coli ATCC 25922, Pseudomonas aeruginosa ATCC 27950, Micrococcus luteus NCIMB 8166), and two pathogenic reference yeasts namely Candida albicans ATCC 90028 and Candida kreusei ATCC 6258.

S. aureus ATCC 25923 = assay: MBC by the agar method; conditions: for MBC: Staphylococcus aureus, ATCC25923
Experimental: as §2

[3] = system: Escherichia coli ATCC 25922; assay: MIC, in vitro micro diffusion method; format: cell-based; conditions: ATCC25922, E. coli ATCC 25922
[4] = system: Micrococcus luteus NCIMB 8166; assay: MIC, in vitro micro diffusion method; format: cell-based; conditions: NCIMB8166, M. luteus NCIMB 8166
Description: as §1

[5] = Escherichia coli, ATCC25922, E. coli ATCC 25922

Row | Structure (SMILES) | MBC (P. aeruginosa ATCC 27950) [µg/mL] | MBC (E. coli ATCC 25922; E. coli ATCC 25922) [µg/mL] | MBC (E. coli ATCC 25922; [5]) [µg/mL] | IC50 [1] [mM] | MBC (M. luteus NCIMB 8166) [µg/mL] | melting point [°C] | MFC/MIC ratio (C. albicans ATCC 90028) | MFC (C. albicans ATCC 90028) [µg/mL] | MFC/MIC ratio (C. kreusei ATCC 6258) | MFC (C. kreusei ATCC 6258) [µg/mL] | MIC [2] [µg/mL] | MBC/MIC ratio (S. aureus ATCC 25923; S. aureus, ≤ 4 bactericidal, >4 bacteriostatic) | MBC (S. aureus ATCC 25923) [µg/mL] | MIC [3] [µg/mL] | MBC/MIC ratio (M. luteus NCIMB 8166) | MIC [4] [µg/mL]
1 | Cc1ccc([C@H]2[C@H](c3ccccc3)N[C@@]3(C(=O)Nc4ccc(Br)cc43)[C@@]23NC(=O)NC3=O)cc1 (racemic) [4b] | 93.8 (≈ 181 µM) | 375 (≈ 725 µM) | 188 to 374 (≈ 362 to 723 µM) | 5.66 | 750 (≈ 1450 µM) | 236 | ≤ 4 | 188 (≈ 362 µM) | ≤ 4 | 93.8 (≈ 181 µM) | 46.9 (≈ 90.6 µM) | 16 | 750 (≈ 1450 µM) |  |  | 
2 | COc1ccc([C@H]2[C@H](c3ccccc3)N[C@@]3(C(=O)Nc4ccc(Cl)cc43)[C@@]23NC(=O)NC3=O)cc1 (racemic) [4c] | 93.8 (≈ 192 µM) |  | 188 (≈ 383 µM) | 4.42 | 750 (≈ 1530 µM) | 211 |  | 46.9 (≈ 95.9 µM) |  | > 1500 |  |  | 188 (≈ 383 µM) | 188 (≈ 383 µM) | 8 | 93.8 (≈ 192 µM)
3 | COc1ccc([C@H]2[C@H](c3ccccc3)N[C@@]3(C(=O)Nc4ccccc43)[C@@]23NC(=O)NC3=O)cc1 (racemic) [4d] | 188 (≈ 413 µM) | 375 (≈ 825 µM) | 188 to 374 (≈ 413 to 823 µM) | 5.15 | 750 (≈ 1650 µM) | 187 |  | > 1500 |  | 93.8 (≈ 206 µM) |  |  | 93.8 (≈ 206 µM) |  |  | 
4 | O=C1NC(=O)[C@]2(N1)[C@@H](c1ccc(Cl)cc1)[C@H](c1ccccc1)N[C@@]21C(=O)N(Cc2ccccc2)c2ccccc21 (racemic) [4f] | 375 (≈ 683 µM) | 375 (≈ 683 µM) | 188 to 374 (≈ 342 to 681 µM) | 8.96 | 750 (≈ 1370 µM) | 195 |  | 93.8 (≈ 171 µM) |  | 93.8 (≈ 171 µM) |  |  | 188 (≈ 342 µM) |  |  | 
5 | O=C1NC(=O)[C@]2(N1)[C@@H](c1ccc(Br)cc1)[C@H](c1ccccc1)N[C@@]21C(=O)N(Cc2ccccc2)c2ccccc21 (racemic) [4g] | 188 (≈ 316 µM) | 375 (≈ 632 µM) | 188 to 374 (≈ 316 to 630 µM) | 8.36 | > 1500 | 223 | ≤ 4 | 93.8 (≈ 158 µM) | ≤ 4 | 93.8 (≈ 158 µM) | 23.3 (≈ 39.3 µM) |  | 46.9 (≈ 79 µM) |  | 8 | 93.8 (≈ 158 µM)
6 | O=C1NC(=O)[C@]2(N1)[C@@H](c1ccc(Cl)cc1)[C@H](c1ccccc1)N[C@@]21C(=O)Nc2ccc(Br)cc21 (racemic) [4h] | 188 (≈ 349 µM) | 375 (≈ 697 µM) | 188 to 374 (≈ 349 to 695 µM) | 3.09 | 188 (≈ 349 µM) | 198 |  | > 1500 |  | > 1500 |  |  | 188 (≈ 349 µM) |  | 8 | 93.8 (≈ 174 µM)
